“And” between values parts separate entries of the source, which are not always exact repeats. Identical values can stand only once.

What all share (assay type): in vivo, Guangxi Bama mini-pigs
The subject of assay [1] is healed epidermis (proliferative layer and differentiated layer). The experiment in a line: Histologic epidermal thickness of healed porcine burn wounds. On the procedure: (§1) An immunohistochemistry analysis was performed to identify the localization and expression of specific molecular markers of keratinocytes in the healed epidermis.
The epidermis partitions into two layers: a proliferative layer and a differentiated layer.

Assay [2] deals with porcine full-thickness burn wounds. The experiment in a line: Porcine full-thickness burn wound healing experiment. The following applies: for Wound healing time (days, X +/− S): 9 wounds per group. The method, then:
(2) Experimental animals: Three female Guangxi Bama mini-pigs are 19-21 kilograms (provided by Tianjin Bainong Laboratory Animal Breeding Technology Co., Ltd., Tianjin, China). Animals were housed in isolated steel cages (80×100×110 cm^3) at 25° C. under natural lighting in the Experimental Animal Center, after thoroughly disinfecting the breeding room and the cages for animals with disinfectants and ultraviolet lamps. Non-experimental personnel are strictly prohibited from entering the breeding room during the experiment Animals were fed with standard pig chow twice daily, 150 grains at a time, and had access to water ad libitum (water is of the clean standard for tap water). The breeding room and cage are disinfected regularly on a weekly basis, and the feed tank and the water sink are cleaned before each feeding.
(3) Creation of porcine full-thickness burn wound models: The miniature pig was raised conventionally, fasted for 12 h, laid on one side, and injected with sumianxin injection into the hip muscle. Once anesthetized, the miniature pig was transferred to an operating table and a ventilation tube was placed in the mouth. After disinfection of the back of the ear, an indwelling needle of the auricle vein was placed for adequate analgesia and sedation. The surgical area on the back was prepared, disinfected with iodophor, on which a sterile sheet was spread, and an expected site of a burn was marked. The aluminum block mold (the net weight of the aluminum block mold is 265 g, and the load is 1 kg) was heated to 96° C. for 10 minutes, and was in close contact with the skin for 45 seconds. Each pig had 9 wounds. The operation on the back of the 3 mini pigs is consistent. After the operation, the wounds were disinfected with iodophor, on which cotton pads dressing and elastic sleeves were applied. Antibiotics were injected intravenously to prevent infection, and 2 ml of the awakening agent Lu Xingning was injected intravenously. The pigs were then transferred to the cages. One hour after waking up, the pigs were fed and given oral rehydration saline. Activities and signs of the pigs were closely observed. After the burn injury, local debridement and different treatments were performed on the wounds. Three weeks after injury, the wounds were covered by necrotic eschar, without exudate and dissolution reaction. Excisional debridement down to the fat layer was performed. Wounds were then dressed and covered with elasticated jackets to prevent animal-initiated damage. Preemptive antibiotics and analeptic Lu Xingning were administered i.v., then the animals were transferred to individual cages, and monitored closely for adverse outcomes during their post-procedure recovery. Post-surgical pain was managed with oral analgesia.
In order to verify the therapeutic effect of the composition of this application on burn wounds, the composition of Example 3 of this application, recombinant human epidermal growth factor rhEGF (5000 IU/mL, 15 mL, Shenzhen Watsin Genetech Ltd.) and physiological saline were used respectively to treat the full-thickness burn wounds of the pigs.
The wounds were photographed and measured at day 7, 14, 21, 28 after different treatments. It can be seen from FIG. 2 that the new granulation tissue of the wound is fresh and rosy without exudation. […]

For another assay, the system named is CK10. As to the kind of experiment: Immunohistochemistry of healed epidermis, IOD of CK10. The settings on record: 4 weeks after treatment, Image-Pro Plus 6.0. On the procedure: as §1
(§2) It can be seen from FIG. 6 that the nuclear transcription factor P63 was mainly expressed in undifferentiated proliferating keratinocytes located in the basal layer. CK 10 was mainly expressed in mature differentiating keratinocytes. The expression of P63 and CK10 protein indicate the proliferation and differentiation of keratinocytes during epithelialization and repair of wounds. The higher the expression of P63 and CK10 protein, the faster the cells proliferate and differentiate. In the late stage of wound repair, fibroblasts secrete more collagen fibers, and a large number of collagen fibers increase and are densely arranged. Masson staining is used to mark the subcutaneous collagen fibers as green. The structure of each layer of the epidermis treated with the present invention is clear. The proliferative layer and the differentiated layer can be clearly identified by immunohistochemical staining.
(§3) Integrated optical density (IOD) values analysis of immunohistological images of P63 and CK10 are performed by Image-Pro Plus 6.0, as shown in Table 3 and FIGS. 8 to 9. […]

Another assay concerns P63. The experiment in a line: Immunohistochemistry of healed epidermis, IOD of P63. The settings on record: 4 weeks after treatment, Image-Pro Plus 6.0. On the procedure: as §1, §2, §3

On to “recombinant human epidermal growth factor [rhEGF]”, for which, in assay [1], the “Thickness of differentiated layer (X +/− S)” value is recorded as 246.20 μm and the “Thickness of proliferative layer (X +/− S)” value is given as 35.92 μm. For the same substance, in assay [2] (FIG. 2, versus saline group), the “wound healing, gross appearance” value is “heal faster than those of the saline group”. Further, the residual wound area result in assay [2] (FIG. 3, compared to the saline group, p<0.05) is listed as “obviously reduced wound area at day 28”. For the same substance, the wound healing rate entry in assay [2] (FIG. 4, compared to the saline group, p<0.05) was “obviously improved the wound healing rate at day 7, 14, 21”. In addition, the “Wound healing time (days, X +/− S)” value in assay [2] (Test Example 1, time to complete epithelialization) is 23.56±4.85 days and 23.56 ± 4.85^2 days. The “Wound healing time (days, X +/− S)” value in assay [2] (Test Example 3) is recorded as 23.56 ± 4.85^2 days. For the same substance, the “IOD (CK10) (X +/− S)” value with CK10 is listed as 395254.15. The “IOD (P63) (X +/− S)” value in the assay with P63 came out at 21929.27.

The values above are taken from patent publication US20210401786A1, “COMPOSITION FOR TREATING BURN WOUNDS” (priority 2020, published 2021).
